Experiment [1] deals with T1, Dual specificity mitogen-activated protein kinase kinase 3 (Homo sapiens, UniProt P46734).
T1 sequence (P46734 whole entry): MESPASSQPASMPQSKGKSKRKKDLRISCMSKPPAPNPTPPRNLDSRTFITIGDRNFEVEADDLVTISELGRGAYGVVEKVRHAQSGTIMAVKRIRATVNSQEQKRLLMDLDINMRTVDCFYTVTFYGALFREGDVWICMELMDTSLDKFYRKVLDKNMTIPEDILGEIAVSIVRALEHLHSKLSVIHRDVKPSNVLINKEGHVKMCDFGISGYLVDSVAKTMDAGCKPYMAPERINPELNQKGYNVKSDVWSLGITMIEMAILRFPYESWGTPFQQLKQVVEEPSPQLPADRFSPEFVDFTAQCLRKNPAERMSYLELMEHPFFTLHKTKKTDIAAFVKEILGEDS

Experiment [2] concerns the target Tyrosine-protein kinase Lck (Homo sapiens, UniProt P06239).
The target of experiment [3] is T2, Serine/threonine-protein kinase A-Raf (Homo sapiens, UniProt P10398).
T2 sequence (P10398 whole entry): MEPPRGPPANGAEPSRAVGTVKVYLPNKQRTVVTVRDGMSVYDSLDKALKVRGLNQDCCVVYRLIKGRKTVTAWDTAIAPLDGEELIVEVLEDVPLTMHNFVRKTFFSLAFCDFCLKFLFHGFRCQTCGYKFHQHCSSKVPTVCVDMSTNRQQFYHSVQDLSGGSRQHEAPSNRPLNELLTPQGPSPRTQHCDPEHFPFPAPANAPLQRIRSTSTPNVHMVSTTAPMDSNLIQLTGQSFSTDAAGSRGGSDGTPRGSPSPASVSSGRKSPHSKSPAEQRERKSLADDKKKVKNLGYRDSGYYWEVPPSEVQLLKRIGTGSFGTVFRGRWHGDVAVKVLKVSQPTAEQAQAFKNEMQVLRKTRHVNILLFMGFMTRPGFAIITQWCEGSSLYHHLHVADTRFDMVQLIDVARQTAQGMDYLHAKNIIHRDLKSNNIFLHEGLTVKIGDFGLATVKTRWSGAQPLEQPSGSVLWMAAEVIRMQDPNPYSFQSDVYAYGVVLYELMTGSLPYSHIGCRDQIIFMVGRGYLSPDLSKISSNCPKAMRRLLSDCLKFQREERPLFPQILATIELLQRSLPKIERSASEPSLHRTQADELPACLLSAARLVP

The next experiment concerns the target LIM domain kinase 1 (Homo sapiens, UniProt P53667).
Experiment [4] concerns the target Serine/threonine-protein kinase 10 (Homo sapiens, UniProt O94804).
Experiment [5] has as its target T3, Mitogen-activated protein kinase kinase kinase 2 (Homo sapiens, UniProt Q9Y2U5).
T3 sequence (Q9Y2U5 whole entry): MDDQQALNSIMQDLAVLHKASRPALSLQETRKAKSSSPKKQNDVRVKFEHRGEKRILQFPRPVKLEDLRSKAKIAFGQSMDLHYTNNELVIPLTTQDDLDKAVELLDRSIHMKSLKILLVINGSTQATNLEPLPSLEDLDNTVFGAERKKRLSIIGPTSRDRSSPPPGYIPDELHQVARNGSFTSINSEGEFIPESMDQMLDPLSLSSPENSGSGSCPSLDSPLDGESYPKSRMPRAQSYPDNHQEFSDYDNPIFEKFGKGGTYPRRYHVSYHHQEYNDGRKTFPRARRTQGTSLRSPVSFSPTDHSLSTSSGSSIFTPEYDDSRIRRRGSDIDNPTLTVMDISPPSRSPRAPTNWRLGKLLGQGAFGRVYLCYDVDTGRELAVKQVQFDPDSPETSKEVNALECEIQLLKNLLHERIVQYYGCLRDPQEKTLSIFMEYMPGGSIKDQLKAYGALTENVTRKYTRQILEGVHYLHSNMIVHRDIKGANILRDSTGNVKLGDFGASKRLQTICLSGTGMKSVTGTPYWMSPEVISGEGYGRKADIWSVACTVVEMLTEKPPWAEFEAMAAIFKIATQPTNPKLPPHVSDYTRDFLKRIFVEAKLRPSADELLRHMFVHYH

The target in experiment [6] is T4, Interleukin-1 receptor-associated kinase 4 (Homo sapiens, UniProt Q9NWZ3).
T4 sequence (Q9NWZ3 whole entry): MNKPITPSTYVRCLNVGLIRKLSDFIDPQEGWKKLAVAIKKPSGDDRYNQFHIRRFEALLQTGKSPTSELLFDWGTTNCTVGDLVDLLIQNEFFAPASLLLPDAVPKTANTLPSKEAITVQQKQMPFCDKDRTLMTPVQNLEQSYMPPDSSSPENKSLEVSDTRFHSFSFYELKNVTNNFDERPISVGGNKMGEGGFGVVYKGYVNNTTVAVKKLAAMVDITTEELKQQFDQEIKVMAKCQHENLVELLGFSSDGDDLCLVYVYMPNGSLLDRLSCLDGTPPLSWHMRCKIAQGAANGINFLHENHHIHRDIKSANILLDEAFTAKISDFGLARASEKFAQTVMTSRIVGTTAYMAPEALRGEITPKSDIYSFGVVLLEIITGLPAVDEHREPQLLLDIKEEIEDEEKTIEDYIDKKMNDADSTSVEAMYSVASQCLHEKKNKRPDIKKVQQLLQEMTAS

For experiment [7], the target named is Citron Rho-interacting kinase (Homo sapiens, UniProt O14578).

The results in this text go back to ChEMBL document CHEMBL3991601, “The target landscape of clinical kinase drugs” (Science, 2017).

Structures can show the parent of a compound that is named as a salt. Active and inactive are the calls of the source. For most assays here, no stated cut-off is given here; in the data, actives have a measured Kd and inactives only a lower limit.

Chain of Serine/threonine-protein kinase 10 (O94804 whole entry): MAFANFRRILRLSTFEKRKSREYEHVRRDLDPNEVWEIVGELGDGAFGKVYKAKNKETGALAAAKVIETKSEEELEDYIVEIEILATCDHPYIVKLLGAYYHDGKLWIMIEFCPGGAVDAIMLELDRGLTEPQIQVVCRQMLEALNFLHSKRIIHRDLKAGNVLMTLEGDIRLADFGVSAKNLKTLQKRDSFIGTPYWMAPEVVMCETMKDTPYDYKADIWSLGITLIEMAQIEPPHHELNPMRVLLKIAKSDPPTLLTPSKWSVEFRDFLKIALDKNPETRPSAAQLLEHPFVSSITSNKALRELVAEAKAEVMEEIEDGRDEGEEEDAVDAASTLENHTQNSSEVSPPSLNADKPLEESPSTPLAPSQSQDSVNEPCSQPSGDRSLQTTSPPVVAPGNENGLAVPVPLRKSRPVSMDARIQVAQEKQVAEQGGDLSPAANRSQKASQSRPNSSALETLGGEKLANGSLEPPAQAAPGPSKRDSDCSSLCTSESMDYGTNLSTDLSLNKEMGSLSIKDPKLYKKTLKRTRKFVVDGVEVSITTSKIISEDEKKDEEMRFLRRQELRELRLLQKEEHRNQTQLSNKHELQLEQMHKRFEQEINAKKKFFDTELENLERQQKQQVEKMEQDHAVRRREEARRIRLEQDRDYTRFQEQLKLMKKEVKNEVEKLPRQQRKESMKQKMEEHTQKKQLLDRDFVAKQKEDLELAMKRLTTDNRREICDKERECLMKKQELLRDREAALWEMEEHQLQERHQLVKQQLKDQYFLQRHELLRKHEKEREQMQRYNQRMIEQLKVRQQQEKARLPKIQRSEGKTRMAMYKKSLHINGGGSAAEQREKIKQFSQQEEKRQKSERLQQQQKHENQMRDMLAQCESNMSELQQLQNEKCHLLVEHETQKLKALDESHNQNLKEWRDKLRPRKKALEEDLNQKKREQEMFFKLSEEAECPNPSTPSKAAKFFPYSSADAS
Chain of Tyrosine-protein kinase Lck (P06239 whole entry): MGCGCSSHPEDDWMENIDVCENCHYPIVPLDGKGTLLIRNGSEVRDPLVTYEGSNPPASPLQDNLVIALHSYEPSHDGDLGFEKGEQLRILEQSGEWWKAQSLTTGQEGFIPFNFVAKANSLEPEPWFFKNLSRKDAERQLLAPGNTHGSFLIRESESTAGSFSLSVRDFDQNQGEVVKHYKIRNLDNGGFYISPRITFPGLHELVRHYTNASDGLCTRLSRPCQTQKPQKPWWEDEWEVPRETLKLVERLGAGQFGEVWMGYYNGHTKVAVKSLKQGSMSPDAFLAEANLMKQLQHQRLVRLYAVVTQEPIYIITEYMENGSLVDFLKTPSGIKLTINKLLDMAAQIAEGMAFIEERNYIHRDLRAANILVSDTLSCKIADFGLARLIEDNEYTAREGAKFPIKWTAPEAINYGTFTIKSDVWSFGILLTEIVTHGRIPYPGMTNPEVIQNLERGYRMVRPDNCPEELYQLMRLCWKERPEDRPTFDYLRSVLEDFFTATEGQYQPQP
Chain of LIM domain kinase 1 (P53667 whole entry, the tested form may be a part): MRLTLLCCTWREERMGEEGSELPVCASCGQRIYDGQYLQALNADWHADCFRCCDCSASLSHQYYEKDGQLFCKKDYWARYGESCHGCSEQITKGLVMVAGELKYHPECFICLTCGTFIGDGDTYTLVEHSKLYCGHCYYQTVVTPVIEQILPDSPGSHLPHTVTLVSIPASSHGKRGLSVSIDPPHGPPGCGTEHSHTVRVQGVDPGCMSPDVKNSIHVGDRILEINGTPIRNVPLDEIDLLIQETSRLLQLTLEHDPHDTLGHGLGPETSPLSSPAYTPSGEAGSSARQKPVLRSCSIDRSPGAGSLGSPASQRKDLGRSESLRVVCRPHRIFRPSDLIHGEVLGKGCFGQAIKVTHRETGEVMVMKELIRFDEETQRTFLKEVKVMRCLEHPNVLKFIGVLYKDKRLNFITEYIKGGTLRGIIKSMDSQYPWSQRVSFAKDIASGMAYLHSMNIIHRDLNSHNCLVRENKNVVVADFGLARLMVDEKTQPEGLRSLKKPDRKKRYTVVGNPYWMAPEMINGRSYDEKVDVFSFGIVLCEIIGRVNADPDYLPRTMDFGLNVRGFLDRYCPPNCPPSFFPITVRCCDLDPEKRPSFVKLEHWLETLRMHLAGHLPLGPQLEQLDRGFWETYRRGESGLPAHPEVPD
Chain of Citron Rho-interacting kinase (O14578 whole entry): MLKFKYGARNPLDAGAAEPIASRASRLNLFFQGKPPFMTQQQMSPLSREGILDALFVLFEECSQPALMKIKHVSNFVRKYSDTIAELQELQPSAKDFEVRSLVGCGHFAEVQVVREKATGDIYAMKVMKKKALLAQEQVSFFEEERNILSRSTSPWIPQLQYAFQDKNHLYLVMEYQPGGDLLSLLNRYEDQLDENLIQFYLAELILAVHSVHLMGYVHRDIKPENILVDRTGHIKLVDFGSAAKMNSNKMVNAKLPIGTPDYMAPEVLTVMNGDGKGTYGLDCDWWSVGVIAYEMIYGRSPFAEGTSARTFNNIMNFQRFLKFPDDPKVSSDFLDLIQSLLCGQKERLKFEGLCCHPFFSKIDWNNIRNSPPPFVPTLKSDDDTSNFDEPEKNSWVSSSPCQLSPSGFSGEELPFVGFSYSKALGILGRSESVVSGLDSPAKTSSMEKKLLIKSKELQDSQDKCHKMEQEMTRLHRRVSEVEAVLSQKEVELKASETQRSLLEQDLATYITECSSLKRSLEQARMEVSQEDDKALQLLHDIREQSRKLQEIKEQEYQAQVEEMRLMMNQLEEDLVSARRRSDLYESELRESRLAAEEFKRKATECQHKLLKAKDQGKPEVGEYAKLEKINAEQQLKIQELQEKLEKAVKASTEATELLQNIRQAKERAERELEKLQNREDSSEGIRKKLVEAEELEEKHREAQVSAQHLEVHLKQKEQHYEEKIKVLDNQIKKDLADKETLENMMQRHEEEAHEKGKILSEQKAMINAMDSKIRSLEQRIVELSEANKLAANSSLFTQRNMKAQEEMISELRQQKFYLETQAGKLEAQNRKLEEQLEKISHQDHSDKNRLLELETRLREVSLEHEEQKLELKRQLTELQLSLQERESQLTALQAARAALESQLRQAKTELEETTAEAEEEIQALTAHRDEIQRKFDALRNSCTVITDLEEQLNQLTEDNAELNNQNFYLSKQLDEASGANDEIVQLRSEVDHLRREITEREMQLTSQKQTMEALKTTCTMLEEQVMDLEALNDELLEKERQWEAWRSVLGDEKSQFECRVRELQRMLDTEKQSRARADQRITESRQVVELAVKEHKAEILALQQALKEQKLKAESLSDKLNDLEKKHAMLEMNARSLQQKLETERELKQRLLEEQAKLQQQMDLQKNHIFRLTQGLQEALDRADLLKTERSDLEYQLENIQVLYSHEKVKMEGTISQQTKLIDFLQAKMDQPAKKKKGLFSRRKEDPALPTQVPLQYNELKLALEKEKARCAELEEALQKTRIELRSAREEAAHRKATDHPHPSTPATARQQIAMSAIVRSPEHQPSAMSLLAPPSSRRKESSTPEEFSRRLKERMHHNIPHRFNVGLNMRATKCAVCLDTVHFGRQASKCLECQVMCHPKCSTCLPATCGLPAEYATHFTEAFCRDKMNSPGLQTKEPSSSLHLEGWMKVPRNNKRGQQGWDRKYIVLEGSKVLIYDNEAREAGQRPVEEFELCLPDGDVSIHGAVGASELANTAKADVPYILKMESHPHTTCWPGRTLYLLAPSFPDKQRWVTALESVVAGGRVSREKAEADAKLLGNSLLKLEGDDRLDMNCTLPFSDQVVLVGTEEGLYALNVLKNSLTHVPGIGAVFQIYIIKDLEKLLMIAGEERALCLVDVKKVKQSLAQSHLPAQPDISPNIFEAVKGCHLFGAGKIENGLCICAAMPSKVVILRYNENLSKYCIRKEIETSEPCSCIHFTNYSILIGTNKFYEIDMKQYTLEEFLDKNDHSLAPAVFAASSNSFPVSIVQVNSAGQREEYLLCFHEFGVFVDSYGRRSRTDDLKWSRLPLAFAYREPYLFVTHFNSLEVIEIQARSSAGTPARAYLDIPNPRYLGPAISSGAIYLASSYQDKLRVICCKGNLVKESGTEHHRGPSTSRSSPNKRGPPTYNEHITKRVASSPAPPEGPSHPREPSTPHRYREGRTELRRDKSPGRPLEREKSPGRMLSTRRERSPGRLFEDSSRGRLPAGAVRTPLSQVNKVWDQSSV

Consider `CCS(=O)(=O)N1CCN(c2ccc(Nc3ncc(C(N)=O)c(NC4CC4)n3)cc2)CC1` [Cerdulatinib Hydrochloride], for which the dissociation constant Kd was 1.48 µM (active) in experiment [1]; > 30 µM (inactive) in experiment [2]; > 30 µM (inactive) in experiment [3]; > 30 µM (inactive) on LIM domain kinase 1; > 30 µM (inactive) in experiment [4]; 0.747 µM (active) in experiment [5]. The Kd in experiment [6] and in experiment [7] was > 30 µM (inactive) each time.

Consider `O=C(Nc1nc2cccc(-c3ccc(CN4CCS(=O)(=O)CC4)cc3)n2n1)C1CC1` [FILGOTINIB], for which the Kd in experiment [1] is > 30 µM (inactive); in experiment [2] it was > 30 µM (inactive); in experiment [3], > 30 µM (inactive); on LIM domain kinase 1, > 30 µM (inactive); in experiment [4], 1.91 µM (active); in experiment [5] it was > 30 µM (inactive). The Kd in experiment [6] and in experiment [7] was > 30 µM (inactive) each time.

As to `Cc1cccc(-c2nn3c(c2-c2ccnc4ccc(C(N)=O)cc24)CCC3)n1` [GALUNISERTIB], the Kd (in experiment [1]; in experiment [2]; in experiment [3]; on LIM domain kinase 1; in experiment [4]; in experiment [5]) was > 30 µM (inactive) throughout. Besides, the Kd in experiment [6] and in experiment [7] was > 30 µM (inactive) in each case.

On to `CCn1cc(-c2ccnc3[nH]c(-c4cccc(CN(C)C)c4)cc23)c(-c2ccc(NC(=O)N(C)C)cc2)n1` [GSK-1070916], for which the Kd (in experiment [1]; in experiment [2]; in experiment [3]; on LIM domain kinase 1; in experiment [4]; in experiment [5]) was > 30 µM (inactive) in each case. The Kd in experiment [6] is > 30 µM (inactive); in experiment [7], 2.89 µM (active).

As for `COc1ccc(S(=O)(=O)N(C(C)=O)c2ccccc2/C=C/c2cc[n+]([O-])cc2)cc1` [HMN-214], the Kd (in experiment [1]; in experiment [2]; in experiment [3]; on LIM domain kinase 1; in experiment [4]; in experiment [5]) was > 30 µM (inactive) each time. Moreover, the Kd in experiment [6] and in experiment [7] was > 30 µM (inactive) in each case.

Turning to `CNC(=O)c1cccc2cc(Oc3ccnc4cc(OCC5(N)CC5)c(OC)cc34)ccc12` [LUCITANIB], the Kd (in experiment [1]; in experiment [2]; in experiment [3]; on LIM domain kinase 1; in experiment [4]; in experiment [5]) was > 30 µM (inactive) throughout. Moreover, the Kd in experiment [6] and in experiment [7] was > 30 µM (inactive) throughout.

Take `NC1(c2ccc(-c3nc4ccn5c(=O)[nH]nc5c4cc3-c3ccccc3)cc2)CCC1` [MK-2206]: the Kd (in experiment [1]; in experiment [2]; in experiment [3]; on LIM domain kinase 1; in experiment [4]; in experiment [5]) was > 30 µM (inactive) throughout. Moreover, the Kd in experiment [6] and in experiment [7] was > 30 µM (inactive) in each case.

For `CN(C[C@@H]1COCCO1)S(=O)(=O)Nc1ccc2ccc3ncc(-c4cnn(C)c4)cc3c(=O)c2c1` [MK-2461], the Kd (in experiment [1]; in experiment [2]; in experiment [3]; at LIM domain kinase 1; in experiment [4]; in experiment [5]) was > 30 µM (inactive) throughout. In addition, the Kd in experiment [6] is 1.47 µM (active); in experiment [7], > 30 µM (inactive).

`Cn1cc(-c2cnc3ccc4ccc(CS(=O)(=O)NCc5ccccn5)cc4c(=O)c3c2)cn1` [MK-8033]: the Kd (in experiment [1]; in experiment [2]; in experiment [3]; on LIM domain kinase 1; in experiment [4]; in experiment [5]) was > 30 µM (inactive) throughout. Further, the Kd in experiment [6] and in experiment [7] was > 30 µM (inactive) each time.

With `FC(F)(F)c1ccc(/C=C/c2nc(COc3ccc(CCCCn4ccnn4)cc3)co2)cc1` [MUBRITINIB], the Kd (in experiment [1]; in experiment [2]; in experiment [3]; on LIM domain kinase 1; in experiment [4]; in experiment [5]) was > 30 µM (inactive) in each case. Also, the Kd in experiment [6] and in experiment [7] was > 30 µM (inactive) each time.

As for `COc1ncc(-c2ccc3nccc(-c4ccnnc4)c3c2)cc1NS(=O)(=O)c1ccc(F)cc1F` [OMIPALISIB], the Kd (in experiment [1]; in experiment [2]; in experiment [3]; at LIM domain kinase 1; in experiment [4]; in experiment [5]) was > 30 µM (inactive) throughout. Also, the Kd in experiment [6] and in experiment [7] was > 30 µM (inactive) in each case.

Consider `CCCCCCCCCCCCCCCCCCOP(=O)([O-])OC1CC[N+](C)(C)CC1` [PERIFOSINE], for which the Kd (in experiment [1]; in experiment [2]; in experiment [3]; on LIM domain kinase 1; in experiment [4]; in experiment [5]) was > 30 µM (inactive) in each case. Besides, the Kd in experiment [6] and in experiment [7] was > 30 µM (inactive) each time.

For the compound `Cc1nc(Nc2n[nH]c3c2CN(C(=O)N[C@H](CN(C)C)c2ccccc2)C3(C)C)c2sccc2n1` [PF-03758309], the Kd (in experiment [1]; in experiment [2]; in experiment [3]; at LIM domain kinase 1; in experiment [4]; in experiment [5]) was > 30 µM (inactive) each time. For the same compound, the Kd in experiment [6] and in experiment [7] was > 30 µM (inactive) throughout.

On to `Cc1cnc(NC(=O)Nc2cc(Br)c(C)cc2OC[C@@H]2CNCCO2)cn1` [RABUSERTIB], for which the Kd (in experiment [1]; in experiment [2]; in experiment [3]; on LIM domain kinase 1; in experiment [4]; in experiment [5]) was > 30 µM (inactive) each time. Also, the Kd in experiment [6] and in experiment [7] was > 30 µM (inactive) in each case.

In general, Kd refers to the concentration at which binding is half-saturated.
